Here are results for 78 compounds from PMC12040169 (PLOS Biology, 2025).

The first data set can be described thus: in vitro. The settings on record: human, hela cells, % viability.
As usually defined, the viability is a read-out of living cells in per cent, often relative to untreated cells. For the compound `CC(C)c1cc(C(=O)N2CCCCCC2c2ccn(C)n2)no1` (stereo not drawn) [CBK283048], the viability at 28.5 h, 10 µM came out at 85.3%.

Regarding `COCCn1c(=O)c2c(nc3oc(C(C)(C)C)cn32)n(C)c1=O` [CBK307566], the viability at 28.5 h, 10 µM was 96.7%.

As for `Nc1cccc(-c2cc(C(=O)NCCc3cccnc3)cnc2-c2ccc(F)cc2)c1` [CBK038016], the viability at 28.5 h, 10 µM is 102%.

Regarding `CCN(CC)Cc1c(O)ccc2cc(-c3nc4ccccc4[nH]3)c(=O)oc12` [CBK263824], the viability at 28.5 h, 10 µM is 102%.

With `Cc1c(C)n(C)c2nc(N3CCCC3)nc(N3CCCC3)c12` [CBK016683C], the viability at 28.5 h, 10 µM is 90.1%.

Take `COCC(=O)Nc1ccc([C@@H](O)[C@H]2COCC(=O)N2C)cc1` [CBK289058]: the viability at 28.5 h, 10 µM turned out to be 106%.

Turning to `O=C(Nc1ccc2nc(-c3ccc(-c4nc5ccc(NC(=O)c6cccs6)cc5[nH]4)cc3)[nH]c2c1)c1cccs1` [CBK261590], the viability at 28.5 h, 10 µM worked out at 87.1%.

For the compound `CCn1nc2c(C)cc3ccc(OC)cc3n2c1=O` [CBK283796], the viability at 28.5 h, 10 µM was determined as 78.3%.

Consider `Cn1nnc2cc(C(=O)N(CCO)c3ccccc3)ccc21` [CBK266522], for which the viability at 28.5 h, 10 µM was found to be 95.5%.

On to `CCn1c2ccccc2c2cc(Nc3cc(-c4cccc5ccccc45)ncn3)ccc21` [CBK090834], for which the viability at 28.5 h, 10 µM was determined as 50.6%.

For `O=C(C1=C(O)C(=O)N(c2ncccn2)C1c1cccc([N+](=O)[O-])c1)c1ccc(F)cc1` (stereo not drawn) [CBK264932], the viability at 28.5 h, 10 µM was 85.2%.

On to `CC(C)Nc1nc2ccccc2nc1Sc1cccc(C(=O)O)c1` [CBK115955T], for which the viability at 28.5 h, 10 µM was 104%.

Take `O=C(OCc1ccc(Cl)cc1)c1ccc2c(c1)C(=O)N(c1cccc([N+](=O)[O-])c1)C2=O` [CBK265188]: the viability at 28.5 h, 10 µM came out at 109%.

`CN(C)CC(C)(C)CNC(=O)c1cc(-c2ccc(C(=O)N3CCOCC3)cc2)cnc1N` [CBK158574]: the viability at 28.5 h, 10 µM amounted to 80.2%.

On to `COc1ccc(CN[C@H]2[C@H](O)[C@@H](N3CCCC3)[C@@H]3OC[C@H]2O3)cc1` [CBK288827], for which the viability at 28.5 h, 10 µM is 88.6%.

Consider `Nc1nc2c(ncn2[C@@H]2O[C@H](CO)[C@H](O)C2O)c(=O)[nH]1` (stereo partly drawn) [CBK201173], for which the viability at 28.5 h, 10 µM worked out at 96%.

Regarding `CS(=O)(=O)NC1CCCN(c2ncnc3ccccc23)C1` (stereo not drawn) [CBK305619], the viability at 28.5 h, 10 µM was found to be 111%.

For `O=C(Nc1cccc(-c2nnco2)c1)C1CCCCC1` [CBK296662], the viability at 28.5 h, 10 µM amounted to 86.2%.

Turning to `CC(Oc1ccccc1)c1nnc(SCC(=O)Nc2ccc(Br)c(Cl)c2)n1C` (stereo not drawn) [CBK266299], the viability at 28.5 h, 10 µM turned out to be 113%.

In the case of `Cc1ccc2nc(CNC(=O)N(C)CCc3c(C)n[nH]c3C)cn2c1` [CBK306984], the viability at 28.5 h, 10 µM came to 81.1%.

Consider `COc1cccc(CN2CCN(CCc3ccccc3)CC2)c1` [CBK126454], for which the viability at 28.5 h, 10 µM is 90.5%.

On to `COc1cccc(C2(O)CCCC3CN(C(C)=O)CC32)c1` (stereo not drawn) [CBK283242], for which the viability at 28.5 h, 10 µM turned out to be 80.8%.

As to `O=C(O)c1ccc2c(c1)C(=O)N(c1cccnc1)C2=O` [CBK287173], the viability at 28.5 h, 10 µM came out at 84.3%.

As for `c1ccc2oc(CN3Cc4nc[nH]c4C[C@H]3c3nc(-c4ccc5c(c4)OCO5)no3)cc2c1` [CBK288998], the viability at 28.5 h, 10 µM stood at 81.5%.

Turning to `O=S(=O)(Nc1nnn[nH]1)c1cccc2nsnc12` [CBK062379], the viability at 28.5 h, 10 µM worked out at 99%.

As to `CC(CCc1ccccc1)NC1CCCc2c1[nH]c1ccc([N+](=O)[O-])cc21` (stereo not drawn) [CBK262875], the viability at 28.5 h, 10 µM turned out to be 73.2%.

In the case of `O=C(O)c1ccn(-c2ccc(NS(=O)(=O)c3ccc(N4CCCC4=O)cc3)cc2)n1` [CBK298327], the viability at 28.5 h, 10 µM was determined as 102%.

With `c1ccc2c(CNCc3ccc4c(c3)OCO4)c[nH]c2c1` [CBK262159], the viability at 28.5 h, 10 µM worked out at 89.5%.

Regarding `Nc1ncc(CN(Cc2ccco2)CC(O)Cn2c3ccccc3c3ccccc32)cn1` (stereo not drawn) [CBK286462], the viability at 28.5 h, 10 µM worked out at 88.6%.

Take `O=C(O)CSc1nnc(-c2ccc3c(c2)OCO3)n1-c1ccccc1` [CBK131690]: the viability at 28.5 h, 10 µM came to 105%.

For `O=C1CC(N2CCN(Cc3ccc4c(c3)OCO4)CC2)C(=O)N1c1ccc(Cl)cc1` (stereo not drawn) [CBK074402], the viability at 28.5 h, 10 µM came out at 103%.

Turning to `COC(=O)c1csc2c1NC1(CCC1)[C@@H]1C[C@@H](O)[C@@H](O)[C@H]21` [CBK303255], the viability at 28.5 h, 10 µM was determined as 119%.

Take `O=C(O)CCNS(=O)(=O)c1ccc(I)cc1` [CBK268968]: the viability at 28.5 h, 10 µM stood at 111%.

For `Cc1nc(-c2ccccc2)nc2c1c(N)nn2CC(=O)O` [CBK287109], the viability at 28.5 h, 10 µM stood at 95.1%.

As to `COc1ccc(CN2CCN(C(=O)c3ccccc3F)CC2)cc1OCc1ccccc1` [CBK263479], the viability at 28.5 h, 10 µM came out at 80.7%.

Consider `CCOc1ccc(N(CCC#N)C(=O)Cn2nc(C(=O)O)c3ccccc3c2=O)cc1` [CBK297502], for which the viability at 28.5 h, 10 µM came to 85.2%.

As to `O=C(CCn1cnnn1)Nc1cc(C(F)(F)F)ccc1Cl` [CBK270127], the viability at 28.5 h, 10 µM was 91.4%.

With `COc1ccccc1Nc1nc(N)nc(CSCCO)n1` [CBK266679], the viability at 28.5 h, 10 µM stood at 91.4%.

With `Cc1ccc(-n2c(SCC(=O)NCc3ccccc3)nnc2-c2ccccc2O)c(C)c1` [CBK268892], the viability at 28.5 h, 10 µM was 91.5%.

With `CCN(C(=O)c1cnccn1)C(CC1CCCCC1)c1ccccc1` (stereo not drawn) [CBK061638], the viability at 28.5 h, 10 µM came out at 92.9%.

With `O=C(N1CCc2ccc(S(=O)(=O)Nc3ccc(-c4nnn[nH]4)cc3)cc2C1)C(F)(F)F` [CBK155437], the viability at 28.5 h, 10 µM was determined as 99.9%.

Regarding `COc1cccc(C(=O)N2CCC(Cc3ccc(-c4ccccc4)cc3)(C(N)=O)CC2)c1` [CBK285770], the viability at 28.5 h, 10 µM amounted to 103%.

Turning to `O=C(Nc1ccc(Br)cc1C(=O)c1ccccc1)c1ccc([N+](=O)[O-])s1` [CBK066838], the viability at 28.5 h, 10 µM came to 111%.

On to `Cc1ccc2nc(SCc3cccc([N+](=O)[O-])c3)nc(C)c2c1` [CBK264370], for which the viability at 28.5 h, 10 µM was 106%.

Turning to `C[C@@H]1CN(C(=O)c2cscn2)C[C@H](C)O1` [CBK200371], the viability at 28.5 h, 10 µM is 90%.

For `CCOC(=O)c1ccc(S(=O)(=O)Nc2cc(C(=O)O)ccc2F)cc1` [CBK295308], the viability at 28.5 h, 10 µM was 84%.

Consider `Nc1ncc(-c2ccc(-c3ccccc3)cc2)nc1NC1CCCCC1` [CBK063572], for which the viability at 28.5 h, 10 µM was found to be 87.3%.

For the compound `CN(C)CCCO/N=C1\CC2(CCCC2)c2ccccc21` [CBK013331], the viability at 28.5 h, 10 µM is 80.7%.

In the case of `Cn1ccc(C2CCCCCN2C(=O)c2c(Cl)cnn2C)n1` (stereo not drawn) [CBK284914], the viability at 28.5 h, 10 µM is 102%.

On to `COc1ccc(Br)cc1CNCc1ccc(C(=O)O)cc1` [CBK269449C], for which the viability at 28.5 h, 10 µM turned out to be 96.2%.

`Cn1cnnc1SC1c2cccc3cccc(c23)C1NS(=O)(=O)c1ccc(Cl)cc1` (stereo not drawn) [CBK264707]: the viability at 28.5 h, 10 µM amounted to 98.2%.

Take `O=C(OCCC1SC(NC2CC3C=CC2C3)=NC1=O)c1cc(F)ccc1F` (stereo not drawn) [CBK200059T]: the viability at 28.5 h, 10 µM was determined as 92.2%.

On to `CS(=O)(=O)Nc1nccnc1OC1CCN(CCc2ccccn2)CC1` [CBK084286], for which the viability at 28.5 h, 10 µM amounted to 109%.

In the case of `COc1c(C)cccc1C(=O)N1CCCCC1c1ncc(C(=O)Nc2ccccc2)c(C)n1` (stereo not drawn) [CBK285841], the viability at 28.5 h, 10 µM was 89.9%.

As to `O=C(Nc1cccc(-c2cn3cccnc3n2)c1)c1cccc([N+](=O)[O-])c1` [CBK268963], the viability at 28.5 h, 10 µM stood at 93%.

Regarding `CCOc1cccc(-c2cn3ccnc3c(NCc3cc(OC)c(OC)c(OC)c3)n2)c1` [CBK066717], the viability at 28.5 h, 10 µM came out at 96.7%.

On to `Cc1ccnc2nc(C(=O)OCC(=O)Nc3cccc(C#N)c3)nn12` [CBK305068], for which the viability at 28.5 h, 10 µM was 100%.

For the compound `CC(C)Cc1ccc(-c2cc(Nc3ccc(O)cc3)ncn2)cc1` [CBK090754], the viability at 28.5 h, 10 µM was 93.6%.

As for `CCCn1cc(CN2C3CCC2CC(O)(c2ccc(F)cc2)C3)cn1` (stereo not drawn) [CBK282971], the viability at 28.5 h, 10 µM is 91.5%.

As to `COc1ccccc1C1(NC(=O)c2c(C)noc2C)CCCC1` [CBK283644], the viability at 28.5 h, 10 µM stood at 95%.

`CN(C)CCN(C)C(=O)c1ccc(-c2ccccc2CO)nc1N(C)C` [CBK076591]: the viability at 28.5 h, 10 µM is 95%.

Consider `COc1ccc(Cl)c(NC(=O)NCCN2CCN(c3ccccc3)CC2)c1` [CBK268899], for which the viability at 28.5 h, 10 µM worked out at 90.7%.

Regarding `O=C(CC1C(=O)NCCN1C(=O)Nc1ccc(OCc2ccccc2)cc1)Nc1ccc(F)cc1` (stereo not drawn) [CBK086203], the viability at 28.5 h, 10 µM worked out at 113%.

Turning to `CS(=O)(=O)N/N=C/c1cccc(Br)c1` [CBK026427], the viability at 28.5 h, 10 µM came out at 92.5%.

As to `FC(F)(F)Oc1ccc(CNc2nccnc2-c2cccs2)cc1` [CBK036806], the viability at 28.5 h, 10 µM came out at 100%.

Turning to `O=C(O)CCC(=O)c1cccc([N+](=O)[O-])c1` [CBK263681], the viability at 28.5 h, 10 µM is 101%.

For `CC(C)c1ccc(OCC(=O)NCc2ccccn2)c(Br)c1` [CBK265910], the viability at 28.5 h, 10 µM was 99.2%.

On to `Cc1cccc(-c2ncc(NC(=O)Cc3ccc(OC(F)(F)F)cc3)nc2-c2cccnc2)c1` [CBK037030], for which the viability at 28.5 h, 10 µM was 89.2%.

For the compound `Nc1nonc1C(=O)NCCNC(=O)c1ccco1` [CBK058480], the viability at 28.5 h, 10 µM amounted to 99.1%.

As for `CC(=O)N1CCCCC[C@@H]2[C@@H]1C[C@@H](Cc1ccccc1)N2C(=O)c1ccccc1` [CBK285576], the viability at 28.5 h, 10 µM came to 115%.

On to `COc1ccc(-c2ccccc2NC(=O)c2ccc(Cn3cnnn3)cc2)cc1` [CBK285866], for which the viability at 28.5 h, 10 µM worked out at 96.4%.

As for `CCCNC(=O)c1ccc(C)c(NC(=O)NC2CCOC2)c1` (stereo not drawn) [CBK306794], the viability at 28.5 h, 10 µM came out at 95.8%.

`COCCNc1nc(-c2ccoc2)cn2ccnc12` [CBK066416]: the viability at 28.5 h, 10 µM was determined as 104%.

`Cc1nn(C)c(C)c1CC(=O)NC1CCN(c2c(F)cccc2F)C1` (stereo not drawn) [CBK306307]: the viability at 28.5 h, 10 µM came to 83.2%.

For `COc1cc(OC)nc(CC(=O)O)n1` [CBK103537], the viability at 28.5 h, 10 µM was 104%.

On to `CCN(Cc1ccncc1)C(=O)NCc1cccnc1` [CBK145054], for which the viability at 28.5 h, 10 µM came out at 94.6%.

As to `CCOC(=O)C1CCCN(Cc2ccc3c(c2)OCO3)C1` (stereo not drawn) [CBK074569], the viability at 28.5 h, 10 µM was 97.7%.

The data set is the same for the next values; noted with them: human, hela cells, % viability, bulk resorufin, single well.
`CCOc1ccc(N2C(=O)NC(=O)/C(=C\NCCc3c[nH]c4ccccc34)C2=O)cc1` [CBK261125]: the viability at 28.5 h, 10 µM worked out at 104%.
